From article PMC5908160, “Inhibition of sperm motility in male macaques with EP055, a potential non-hormonal male contraceptive” (PLoS ONE, 2018)

Assays:
EPPIN = EPPIN (Homo sapiens, UniProt O95925); assay: AlphaScreen assay of a-EAb binding to EPPIN; conditions: n = 4, read-out: IC50, inhibition of a-EAb binding to EPPIN
Experimental: The AlphaScreen® assay was carried as previously described. Briefly, recombinant histidine-tagged recombinant EPPIN was pre-incubated with Ni-NTA chelate donor beads (catalog number AS101, Perkin Elmer, Waltham MA) and anti-Eppin 007 antibody was pre-incubated with Protein A acceptor beads (catalog number 6760136, Perkin Elmer, Waltham MA) for 30 minutes. Equal volumes of donor and acceptor bead mixtures were pipetted into white opaque 384-well microplates (OptiPlate-384; PerkinElmer, Waltham, MA) in a final volume of 30 μL. Plates were covered with top seal and transferred to a Synergy 2 Multiplatform automated plate reader (Biotek, Winooski, VT). After shaking for 2 min, plates were read with an excitation 680/30 filter, an emission 570/100 filter and data acquired using Gen5 software (Biotek). Each set of samples was pipetted in 4 replicates. […] A specific signal for each time point was calculated by subtracting the background signal (obtained in the absence of EPPIN) from its respective total signal. […] Non-specific interactions of compound with assay components were measured at the same time with the IgG detection kit ([…] biotinylated rabbit IgG) to generate the bead interaction: 10 μg/ml donor and acceptor beads. […]

human sperm = assay: CASA (Computer Assisted Sperm Analysis) assay of human sperm motility; assay type: cell-based; conditions: n = 4 donors, read-out: average relative motility index (RMI) IC50
Experimental: Human semen samples were obtained from the Department of Obstetrics and Gynecology, University of North Carolina Memorial Hospital, Chapel Hill, NC. […] Semen samples were allowed to liquefy for 30 minutes and subjected to standard semen analysis to determine acceptability before freezing. All samples were stored in liquid nitrogen, and de-identified by the Department of Obstetrics and Gynecology, University of North Carolina Memorial Hospital, Chapel Hill, NC before further processing. A density gradient (Isolate catalog number 99264, Irving Scientific, Irving CA, or SpermCare catalog number 2221 and 2222, InvitroCare Inc., Frederick MD) was used to prepare spermatozoa for further analysis. At least 3 independent experiments were done per assay, each using a single donor.
Computer Assisted Sperm Analysis (CASA) was conducted as previously described. Briefly sperm were washed after the density gradient with EP buffer-0.4% BSA and resuspended in modified M16 for compound treatments. Sperm were diluted to 5 x 10^6/mL in 12x75 mm glass tubes with the appropriate treatment and incubated at 37°C in 5% CO2. […] The relative mobility index (RMI) is a measure of the effect of compound on sperm and is calculated as the VSL x %normal motility and normalized to the appropriate DMSO control.

[1] = EP012 plasma half-life in rats; assay type: in vivo; conditions: rat, iv, preliminary testing, 1 mg/kg i.v. bolus
Experimental: Preliminary half-life measurements for EP012 were carried out by Calvert Laboratories ([…]
The intravenous formulation was prepared by mixing an appropriate amount of EP012 (1 mg/kg) with an appropriate volume of intravenous vehicle (DMSO). The pH of the intravenous formulations was confirmed to be 7.4-7.6 and instilled through a syringe filter for sterilization prior to dosing. Three Sprague Dawley male rats (8-14 weeks; 300 to 325 g) were surgically implanted with a catheter in a jugular vein using polyurethane tubing and glycerol or dextrose solution as the lumen lock solution. The intravenous formulation was administered as a bolus injection into a lateral tail vein.
Serial blood samples (~0.30 mL each), were obtained from each animal via the jugular vein catheter at the following timepoints post-dose: 0.083, 0.167, 0.333, 0.5, 1, 2, 4, 8, 12, and 24 hours. Plasma (~125 µL per sample) was harvested following centrifugation of the chilled blood samples at 3000 RPM for 10 minutes at +4 °C. Derived plasma was transferred into prelabeled plastic vials and stored frozen at approximately -70 °C or lower until processing.
Sample preparation and LC-MS/MS analysis were done by OpAns LLC (Durham, NC). Plasma samples (both rat and macaque) were thawed at room temperature and processed by adding 160 µL of methanol (including 10 µL internal standard) to 25 µL of the sample. […]

Chain of EPPIN (O95925 22-133): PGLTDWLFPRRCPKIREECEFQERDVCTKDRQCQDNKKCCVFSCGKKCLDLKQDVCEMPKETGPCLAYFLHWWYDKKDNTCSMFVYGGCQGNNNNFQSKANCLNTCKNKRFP

With `COC(=O)NNc1nc(Nc2ccc(NC(=O)OC)c(O)c2)nc(SCC(=O)O)n1` [EP012] the IC50 (EPPIN) was 55.4 µM, the IC50 (human sperm) was 33.4 µM and the half-life [1] was under 4 min.
